From patent US20250297116A1, “PRECURSOR COMPOUNDS FOR MOLECULAR COATINGS” (Apeel Technology, Inc., priority 2015, published 2025)

What was measured:
[1] = system: edible substrates (blueberries, bananas, strawberries, lemons, avocados, and limes); experiment: Coating studies on edible substrates: mass loss over time and visible residues; settings: coated edible substrates
Procedure: For these studies, mixtures (which were typically solid but in some cases were oils) comprising compounds of Formula I and/or compounds of Formula II and/or other additives (e.g., 1-monoacylglycerides, fatty acids, esters, amides, amines, thiols, carboxylic acids, ethers, aliphatic waxes, alcohols, salts (inorganic and organic), or combinations thereof) were first formed. The mixtures were then dissolved in a solvent (e.g., either ethanol or a water and ethanol mixture, for instance in a 1:2 water:ethanol ratio or lower) to form a solution, from which coatings were formed over a variety of edible substrates (blueberries, bananas, strawberries, lemons, avocados, and limes). Details about the specific formulations used and procedures for the forming of the coatings are described below for illustrative purposes with reference to FIGS. 2-18. The substrates were then examined for the presence of visible residues on the surface and tested for percent mass loss over time, and were compared to control samples without the coatings. A variety of different compositions of mixtures (e.g., solid mixtures) were used to form coatings on a variety of edible substrates, where the specific compositions and coating procedures are described below with reference to FIGS. 2-18. Some of the compositions were substantially pure (e.g., at least 90% or at least 95% pure) 2-monoacylglyceride compounds (e.g., compounds of Formula I). For example, coatings were formed from compositions that were substantially pure PA-2G, as well as from compositions that were substantially pure SA-2G. Some of the compositions were substantially pure (e.g., at least 90% or at least 95% pure) 1-monoacylglyceride compounds (e.g., compounds of Formula II). For example, coatings were formed from compositions that were substantially pure PA-1G, compositions that were substantially pure OA-1G, and compositions that were substantially pure SA-1G. Some of the compositions included a compound of Formula I and an additive, where for each of these compositions various ratios of the compound of Formula I to the additive were tested. For example, coatings were formed from compositions which included the combinations of a compound of Formula I and an additive as listed in Table 1 below. Additives included, for example, a saturated or unsaturated compound of Formula II, a saturated or unsaturated fatty acid, an ethyl ester, and/or a second compound of Formula I which is different from the (first) compound of Formula I (e.g., has a different length carbon chain).

[2] = system: finger limes; experiment: Average daily mass loss rate and residues of coated finger limes; settings: bag coated, 10 mg/mL in ethanol, over several days, 24 finger limes per group, 23-27°C, 40-55% humidity
Procedure: FIGS. 2-18 illustrate the effects of coating a variety of edible substrates with the compositions described herein. To form the coatings, solid mixtures of the compositions were first fully dissolved in ethanol at a concentration of 10 mg/mL (except where a different concentration is specified) to form a solution. The solution was then applied to the substrate either by spraying or dip coating, as detailed for each of the substrates below. The substrates were then dried on drying racks under ambient conditions (temperature in the range of 23° C.-27° C., humidity in the range of 40%-55%) until all of the solvent had evaporated, allowing the coatings to form over the substrates. […] For all mixtures described, PA was purchased from Sigma Aldrich, PA-1G was purchased from Tokyo Chemical Industry Co, PA-2G was prepared following the method of Example 1 above, SA was purchased from Sigma Aldrich, SA-1G was purchased from Alfa Aesar, SA-2G was prepared following the method of Example 3 above, MA was purchased from Sigma Aldrich, MA-1G was purchased from Tokyo Chemical Industry Co, OA was purchased from Sigma Aldrich, and EtPA was purchased from Sigma Aldrich.
FIG. 11 is a graph showing average daily mass loss rates for finger limes coated with various mixtures of PA-2G (compound of Formula I) and PA-1G (additive) measured over the course of several days. […]

Compound | reduction in mass loss versus uncoated control samples [1] | average daily mass loss rate [2]
CCCCCCCCCCCCCC(=O)OCC(O)CO (centres unmarked) [MA-1G, 2,3-dihydroxypropan-1-yl tetradecanoate] | at most a nominal reduction in mass loss | 
CCCCCCCC/C=C\CCCCCCCC(=O)OCC(O)CO (centres unmarked) [OA-1G, 2,3-dihydroxypropan-1-yl (9Z)-Octadecenoate] | at most a nominal reduction in mass loss | 
CCCCCCCCCCCCCCCC(=O)OCC(O)CO (centres unmarked) [PA-1G, 2,3-dihydroxypropan-1-yl palmitate] | at most a nominal reduction in mass loss | over 4 % per day
CCCCCCCCCCCCCCCC(=O)OC(CO)CO [PA-2G, 1,3-dihydroxypropan-2-yl palmitate] | at most a nominal reduction in mass loss | under 4 % per day
CCCCCCCCCCCCCCCCCC(=O)OCC(O)CO (centres unmarked) [SA-1G, 2,3-dihydroxypropan-1-yl octadecanoate] | at most a nominal reduction in mass loss | 
CCCCCCCCCCCCCCCCCC(=O)OC(CO)CO [SA-2G, 1,3-dihydroxypropan-2-yl octadecanoate] | at most a nominal reduction in mass loss | 
